Laboratory results as given in US10106551B2, “Monothiol mucolytic agents” (PARION SCIENCES, INC., priority 2015, dated 2018).

Experiments:
[1] = DTNB assay: rate of S-S bond reduction; assay type: biochemical; conditions: for DTNB reduction rate: 22.5 μM reducing agent, 45 μM DTNB, 50 mM Tris-HCl
From the text: Thiol-containing compounds, such as the monothiol mucolytic agents described in this patent, can react with DTNB (5,5-Dithiobis(2-nitrobenzoic acid)) resulting in the cleavage of its single S—S bond. The DTNB assay serves a dual purpose in our analysis of monothiol compounds, as it can (1) be used to determine the “active concentration” of the mucolytic compounds (what amount of the compound in a reaction is able to cleave S—S bonds) and (2) to assess the rate that the compound can cleave S—S bonds. When cleaved, the resulting compound, NTB (2-nitro-5-thiobenzoate), is a colored product that is measured spectrophotometrically at an absorbance of 412 nm (Abs412). Using the molar extinction coefficient of NTB and measured maximum Abs412, the molar amount of DTNB that reacted with our mucolytic agents can be calculated. Monothiol mucolytic compounds react at a 1:1 stoichiometric ratio with DTNB (i.e. 1 mole of NTB is produced when 1 mole of DTNB is reacted with 1 mole of a monothiol reducing agent). To define the activity concentration of a compound, a final concentration of 22.5 μM mucolytic reducing agent was combined with an excess of DTNB (100 μM) in 1 mL 50 mM Tris-HCl buffer (pH 7.5). Maximum Abs412 was measured and then utilized to calculate the activity concentration. If observed activity concentrations differed from expected activity concentrations by more than 5%, the amount of the compound added to each reaction was accordingly adjusted to kinetically test the reducing rate in the next step. To determine rate of mucolytic reducing activity, 22.5 μM active reducing agent is combined with 45 μM DTNB in 1 mL 50 mM Tris-HCl buffer over a pH range (6.0-7.5). Abs412 is recorded in real time upon addition of the compound and rates were calculated using 2nd order kinetic parameters.

[2] = molecular target: T1, Muc5B (Homo sapiens, UniProt Q9HC84); assay: Mucin agarose gel western blot (saliva / mucus samples); assay type: biochemical; conditions: for reducing capacity relative to 76 (Muc5B): FIG. 3; for Muc5b reduction: FIG. 4
T1 construct: Various mucin-containing substrates (e.g. saliva, harvested HBE mucus, and disease sputum) treated with our monothiol mucolytic compounds; from tissue; host or cells: saliva; harvested HBE mucus; disease sputum
Procedure: (§1) Various mucin-containing substrates (e.g. saliva, harvested HBE mucus, and disease sputum) treated with our monothiol mucolytic compounds are quenched upon completion of the treatment period with a 10-fold excess of N-ethylmaleimide in order to alkylate any remaining active compound and to prevent further mucin reduction. A 10× concentrated sample loading buffer is diluted into each sample (1×TAE/5% glycerol/0.1% SDS/Bromophenol Blue). Samples ([…]) were analyzed by electrophoresis on 0.9% agarose gels using a buffer system consisting of 1×TAE/0.1% SDS. The agarose gel was soaked for 15 min in 4×SSC (0.6 M NaCl, 60 mM Tri-sodium citrate dehydrate) containing 10 mM DTT before transferring the samples from the gel onto a nitrocellulose membrane by vacuum blotter. Unreduced and reduced Muc5B were visualized on a LiCor Odyssey imaging detection system using a polyclonal antibody directed towards Muc5B.

[3] = tested on: IL-8; assay: IL-8 Secretion from primary HBEs (ELISA); assay type: cell-based, human; conditions: FIG. 6B; 10 mM, apical surface of HBE cells, 24 hours
Procedure: Reducing agents were made up in 50 mM Tris-HCl buffered to pH 7.5. Each compound solution (15 μL of 10 mM compound) was added to the apical surface of primary HBEs.
IL-8 secretion was measured from the basolateral HBE media 24 hours post-dose using a ThermoScientific human IL-8 ELISA kit. Samples were diluted 1:50 and then 50 μL of each dilution was added to the ELISA plate. The samples were completed in duplicate following standard reaction conditions as outlined in the kit manual. Absorbance was measured at 450 nm. A standard curve, generated from standards with known amounts of human IL-8, was used to calculate IL-8 amounts in the unknown samples. Supernatant from mucopurlent matters (SMM) purified from cystic fibrosis sputum was used as a positive control for IL-8 secretion.

[4] = Parallel Artificial Membrane Permeability (PAMPA) Assay; assay type: in vitro ADME; conditions: FIG. 5; 5 hours, room temperature
Procedure: This assay measures the permeability of small molecules across an artificial phospholipid membrane to help predict in vivo drug permeability. First, 500 μM stock solutions were made up in PBS and tested by the DTNB assay (described above) to determine compound activity concentrations. Next, 300 μL of the 500 μM compound stock solution and 200 uL PBS were added per well to the donor and acceptor plates, respectively (BD Gentest™ Pre-Coated PAMPA Plate System). The acceptor plate was then placed on top of the donor plate and allowed to incubate at room temperature for 5 hours. After incubation, the donor and acceptor plates were separated. For each reaction, samples were taken from both the acceptor and donor plates and were combined with DTNB prior to reading spectrophotometrically (maximum Abs412). For prodrug samples, 1 μL of purified esterase (porcine liver esterase; Sigma) was added per well and the samples were incubated at room temperature for 5 minutes to allow for cleavage of the pro-drug cap prior to addition of DTNB. Using the concentrations of compound identified in both the donor and acceptor plates for each sample, a compound permeability parameter was calculated following equations outlined in the BD Gentest™ Pre-Coated PAMPA Plate System Manual.

[5] = Pro-Drug DTNB assay with or without esterase; assay type: biochemical
Procedure: The present invention provides a series of mucolytic pro-drugs (see R^6=other than H) that are activated by common enzymes that are present in the extracellular milieu (e.g., nucelotidases, phosphatases, and esterases). As a proof-of-concept, the reducing kinetics of the pro-drug compound 46 in the presence or absence of an activating esterase were tested.
This assay was designed to determine whether prodrug caps added on to our monothiol mucolytic compounds can be cleaved from the molecule. If so, the outcome would be an “active” compound that is able to reduce the S—S bond in DTNB. Similar to the activity concentration version of the DTNB assay described above, monothiol prodrugs were mixed at a final concentration of 22.5 μM with excess DTNB (100 μM final) in 1 mL 50 mM Tris-HCl buffer (pH 7.5) and maximum Abs412 was measured. In the absence of a purified hydrolytic enzyme (e.g. porcine liver esterase; Sigma), the amount of DTNB cleavage observed is an indicator for stability of the cap on the prodrug compound (i.e. if the prodrug remains intact in solution the Abs412=0). Next, 5 uL of esterase (bought as an ammonium sulfate suspension that is subsequently centrifuged to isolate the esterase and then dissolved in reaction buffer prior to assaying) is combined with excess DTNB (100 μM final) and 22.5 μM pro-drug in 1 mL 50 mM Tris-HCl buffer (pH 7.5). Cleavage of the prodrug cap can be visualized in real time via DTNB cleavage at Abs412 by the esterase-liberated monothiol molecule.

[6] = molecular target: T1, Muc5B; assay: Muc5b reduction in COPD sputum, agarose gel western blot; assay type: biochemical; conditions: FIG. 8; spontaneously induced sputum from a patient with COPD
Procedure: as §1
An important aspect of mucolytic pro-drugs is that they must be activated in mucus on the lung surface.

[7] = tested on: mucus on primary human bronchial epithelial (HBE) cultures; assay: Mucus reduction on primary human bronchial epithelial (HBE) cultures, western blot; assay type: cell-based; conditions: FIG. 9; added to apical surface of HBE cultures
Procedure: as §1
Mucin reduction kinetics were assessed by western blot at the indicated times post-addition of mucolytic agents to the apical surface of HBE cultures.

[8] = Elimination of inhaled 14C-labelled NAC from the lungs in animal studies; assay type: in vivo; conditions: inhaled or intranasal, 14C-labled NAC, administered by inhalation, animal studies (unpublished observation)

| SMILES | reducing capacity relative to 76 (Muc5B) [2] | IL-8 secretion [3] | membrane permeability (PAMPA) [4] | Muc5b reduction relative to NAC ([2]; FIG. 2, 10 mM, 5-fold lower concentration than NAC) | Reduction Without Esterase ([5]; 22.5 μM prodrug, 100 μM DTNB, pH 7.5, no enzyme) | Reduction With Esterase ([5]; 22.5 μM prodrug, 100 μM DTNB, pH 7.5, porcine liver esterase) | DTNB cleavage without esterase ([5]; FIG. 7 middle panel) | Muc5b reduction ([2]; 3 mM) | Muc5b reduction ([2]; 30 mM) | half-life [8] [min] | DTNB reduction rate ([1]; pH 6) [M⁻¹ s⁻¹] | DTNB reduction rate ([1]; pH 6.5) [M⁻¹ s⁻¹] | DTNB reduction rate ([1]; pH 7) [M⁻¹ s⁻¹] | DTNB reduction rate ([1]; pH 7.5) [M⁻¹ s⁻¹] | reduction of salivary Muc5b compared to NAC ([2]; FIG. 2, equimolar concentrations relative to NAC (50 mM)) | DTNB cleavage after addition of an esterase ([5]; FIG. 7 right-hand panel) | Muc5b reduction in sputum [6] | duration of mucus reduction [7] | mucin reduction kinetics [7] | DTNB cleavage ([1]; FIG. 7 left panel) |
| --- | --- | --- | --- | --- | --- | --- | --- | --- | --- | --- | --- | --- | --- | --- | --- | --- | --- | --- | --- | --- |
| NCCCC[C@@H](N)C(=O)NCCOc1ccc(CS)cc1 [Compound 69, (R)-2,6-diamino-N-(2-(4-(mercaptomethyl)phenoxy)ethyl)hexanamide] | retain the reducing capacity of 76 | did increase IL-8 secretion | – | – | – | – | – | – | – | – | 485.93 | – | – | – | – | – | – | – | – | – |
| CC(=O)SCc1ccc(OCCN)cc1.Cl [Compound 76, S-4-(2-aminoethoxy)benzyl ethanethioate hydrochloride] | – | did not increase IL-8 secretion | membrane permeable | greater Muc5b reduction relative to NAC | – | – | – | – | – | – | 253.2 | 654.24 | 1499 | 4633.8 | significantly faster and more complete reduction | – | – | – | – | – |

The next lines start with results.

| reducing capacity relative to 76 (Muc5B) [2] | IL-8 secretion [3] | membrane permeability (PAMPA) [4] | Muc5b reduction relative to NAC ([2]; FIG. 2, 10 mM, 5-fold lower concentration than NAC) | Reduction Without Esterase ([5]; 22.5 μM prodrug, 100 μM DTNB, pH 7.5, no enzyme) | Reduction With Esterase ([5]; 22.5 μM prodrug, 100 μM DTNB, pH 7.5, porcine liver esterase) | DTNB cleavage without esterase ([5]; FIG. 7 middle panel) | Muc5b reduction ([2]; 3 mM) | Muc5b reduction ([2]; 30 mM) | half-life [8] [min] | SMILES | DTNB reduction rate ([1]; pH 6) [M⁻¹ s⁻¹] | DTNB reduction rate ([1]; pH 6.5) [M⁻¹ s⁻¹] | DTNB reduction rate ([1]; pH 7) [M⁻¹ s⁻¹] | DTNB reduction rate ([1]; pH 7.5) [M⁻¹ s⁻¹] | reduction of salivary Muc5b compared to NAC ([2]; FIG. 2, equimolar concentrations relative to NAC (50 mM)) | DTNB cleavage after addition of an esterase ([5]; FIG. 7 right-hand panel) | Muc5b reduction in sputum [6] | duration of mucus reduction [7] | mucin reduction kinetics [7] | DTNB cleavage ([1]; FIG. 7 left panel) |
| --- | --- | --- | --- | --- | --- | --- | --- | --- | --- | --- | --- | --- | --- | --- | --- | --- | --- | --- | --- | --- |
| – | – | poor membrane permeability | – | No | Yes | does not cleave DTNB | – | – | – | CC(=O)SCc1ccc(OCCN(C[C@H](O)[C@@H](O)[C@H](O)[C@H](O)CO)C[C@H](O)[C@@H](O)[C@H](O)[C@H](O)CO)cc1 [Compound 85, S-4-(2-(bis((2S,3R,4R,5R)-2,3,4,5,6-pentahydroxyhexyl)amino)ethoxy)benzyl Ethanethioate] | – | – | – | – | – | metabolically converts 85 to 86, allowing it to hydrolyze DTNB | reduces the Muc5b, but with a delayed kinetic relative to 86 | potentially longer duration of action | slower reduction kinetics | – |
| retain the reducing capacity of 76 | no change in IL-8 | poor membrane permeability | – | – | – | – | partial reduction | full Muc5b reduction | – | OC[C@@H](O)[C@@H](O)[C@H](O)[C@@H](O)CN(CCOc1ccc(CS)cc1)C[C@H](O)[C@@H](O)[C@H](O)[C@H](O)CO [Compound 86, (2R,2′R,3R,3′R,4R,4′R,5S,5′S)-6,6′-((2-(4-(mercaptomethyl)phenoxy)ethyl)azanediyl)bis(hexane-1,2,3,4,5-pentaol)] | 160 | – | – | – | – | – | rapidly reduced Muc5b | substantially recovered 24 hours after dosing | rapid reduction of the mucus | rapidly cleaves DTNB |
| – | – | – | – | – | – | – | – | partial Muc5b reduction | ~20 | CC(=O)N[C@@H](CS)C(=O)O [NAC, N-acetyl cysteine, reference compound] | 10 | 26 | 69 | 230 | – | – | – | – | – | – |
